These results are taken from patent US20210115040A1, “OGA INHIBITOR COMPOUNDS” (Janssen Pharmaceutica NV, priority 2018, published 2021).

The target of one data set is T1, OGA (Homo sapiens, UniProt O60502).
T1 construct: HEK293 cells inducible for P301L mutant human Tau (isoform 2N4R) were established at Janssen; endogenous in cells; host or cells: HEK293 cells inducible for P301L mutant human Tau (2N4R)
T1 sequence (O60502 1-916): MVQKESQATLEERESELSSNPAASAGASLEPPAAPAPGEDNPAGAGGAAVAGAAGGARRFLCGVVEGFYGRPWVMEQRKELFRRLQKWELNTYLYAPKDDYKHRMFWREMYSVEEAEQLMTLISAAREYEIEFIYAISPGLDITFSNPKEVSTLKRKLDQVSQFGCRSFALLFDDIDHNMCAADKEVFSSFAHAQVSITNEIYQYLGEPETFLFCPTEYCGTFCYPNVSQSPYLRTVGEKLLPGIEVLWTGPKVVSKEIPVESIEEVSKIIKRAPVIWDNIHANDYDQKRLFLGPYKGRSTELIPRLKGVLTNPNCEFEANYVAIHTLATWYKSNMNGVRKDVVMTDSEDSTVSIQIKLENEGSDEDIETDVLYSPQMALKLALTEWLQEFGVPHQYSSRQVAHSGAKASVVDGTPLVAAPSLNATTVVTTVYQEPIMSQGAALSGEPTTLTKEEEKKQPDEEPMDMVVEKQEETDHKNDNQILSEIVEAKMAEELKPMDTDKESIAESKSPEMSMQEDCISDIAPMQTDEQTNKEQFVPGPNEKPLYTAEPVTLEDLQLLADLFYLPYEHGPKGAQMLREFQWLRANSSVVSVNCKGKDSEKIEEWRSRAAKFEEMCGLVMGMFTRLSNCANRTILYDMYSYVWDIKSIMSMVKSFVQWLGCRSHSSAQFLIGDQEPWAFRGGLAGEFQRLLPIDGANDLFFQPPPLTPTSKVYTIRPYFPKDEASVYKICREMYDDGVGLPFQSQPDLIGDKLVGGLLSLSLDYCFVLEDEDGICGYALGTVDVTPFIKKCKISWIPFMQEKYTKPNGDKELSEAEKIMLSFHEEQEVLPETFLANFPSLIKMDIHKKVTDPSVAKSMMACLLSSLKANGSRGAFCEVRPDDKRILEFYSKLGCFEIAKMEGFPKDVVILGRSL
The data set can be described thus: OGA cellular assay (ICC detection of O-GlcNAcylated proteins in HEK293 cells inducible for P301L mutant human Tau). The note with it: for EC50: read-out: Cellular hOGA, pEC50 (converted); for Cellular Emax (%) / Emax: maximum = Thiamet G 200 uM. The class given is cell-based. The method in brief: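 HEK293 cells inducible for P301L Tau (2N4R), seeded in low-glucose medium, treated with compound for 6 h at 0.2% DMSO. O-GlcNAc immunostained with CTD110.6 after PFA fixation; 488 nm intensity imaged, Hoechst nuclei counted for toxicity. IC50 by non-linear regression, 200 uM Thiamet G as maximum.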

Data set [1] concerns the target T2, recombinant human Meningioma Expressed Antigen 5 (MGEA5), also referred to as O-GlcNAcase (OGA) (Homo sapiens, UniProt O60502).
T2 construct: Full length OGA enzyme was purchased at OriGene (cat #TP322411); purchased OriGene TP322411
T2 sequence (O60502 1-916): T1 sequence (O60502 1-916)
The data set can be described thus: OGA biochemical assay (inhibition of FM-GlcNAc hydrolysis, fluorescence). As to conditions: FM-GlcNAc substrate; for IC50: 6 h at room temperature, read-out: Enzymatic hOGA, pIC50 (converted); for Emax: read-out: Enzymatic Emax (%). The gist of the method:
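Full-length OGA (2 nM) pre-incubated 60 min at room temperature with compound, then FM-GlcNAc (100 uM final) hydrolysed 6 h at room temperature in 200 mM citrate/phosphate pH 7.2 with 0.005% Tween-20. Stopped with carbonate pH 11.0; fluorescein read at ex 485/em 538 nm. IC50 and Hill coefficient from curve fit between no-inhibitor and saturating-standard controls.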

[2] abbreviates: HEK293 cells inducible for P301L mutant human Tau, 6 hours incubation.
[3] abbreviates: HEK293 cells inducible for P301L mutant human Tau.
Where [4] appears, read: HEK293, HEK293 cells inducible for P301L mutant human Tau.

For `Cc1cc(CO[C@H]2CCCN(C(C)c3cc4nc(C)sc4cc3F)C2)cc(C)n1` (single isomer, unassigned) [Compound 100], at OGA (setting [2]), the EC50 was greater than 1000 nM. Besides, the “Cellular Emax (%)” value at OGA (setting [3]) is listed as −6%. Besides, the IC50 in data set [1] was 1260 nM. The Emax (usually the maximal effect, on the per cent scale that the assay sets) in data set [1] (maximal effect) was determined as 92%.
As to `Cc1cc(O[C@@H]2CCN(C(C)c3cc4nc(C)sc4cc3F)C2)cc(C)n1` (stereo partly shown) [Compound 88], the Emax on OGA (setting [4]) came out at 66%; in data set [1] (maximal effect), 99%. Further, the EC50 at OGA (setting [2]) is 251 nM. In addition, the IC50 in data set [1] is 3.16 nM.
On to `Cc1cc([C@H]2CCCN([C@H](C)c3ccc4sc(C)nc4n3)C2)nc(C)n1` (racemic) [Compound 70], for which the Emax came to 55% on OGA (setting [4]) and 98% in data set [1] (maximal effect). Also, the EC50 on OGA (setting [2]) was 794 nM. Also, in data set [1], the IC50 was 63.1 nM.
In the case of `Cc1cc(C[C@@H]2CCN(C(C)c3ccc4sc(C)nc4n3)C2)nc(C)n1` (single isomer, unassigned) [Compound 72], the Emax at OGA (setting [4]) was 18%; in data set [1] (maximal effect) it was 95%. The EC50 at OGA (setting [2]) is greater than 1000 nM. Moreover, the IC50 in data set [1] is 316 nM.
Consider `Cc1cc(C[C@@H]2CCN(C(C)c3nc4nc(C)sc4cc3F)C2)cc(C)n1` (mixture of isomers) [Compound 50], for which the results for the Emax (at OGA (setting [4]); in data set [1] (maximal effect)) were 77% and 102%, respectively. The EC50 at OGA (setting [2]) is 200 nM. In data set [1], the IC50 was 20 nM.
As to `Cc1cc(O[C@@H]2CCN(C(C)c3ccc4sc(C)nc4n3)C2)cc(C)n1` (single isomer, unassigned) [Compound 74], the “Cellular hOGA; pEC50” value on OGA (setting [2]) is less than 6. Further, the “Cellular Emax (%)” value on OGA (setting [3]) is recorded as −4%. Moreover, the IC50 in data set [1] was 158 nM. In data set [1] (maximal effect), the “Enzymatic Emax (%)” value was determined as 97%.
Regarding `Cc1cc([C@H]2CCCN([C@H](C)c3nc4nc(C)sc4cc3F)C2)cc(C)n1` (single isomer, unassigned) [Compound 86], the Emax at OGA (setting [4]) turned out to be 12%; in data set [1] (maximal effect), 95%. Besides, the EC50 at OGA (setting [2]) was greater than 1000 nM. In addition, the IC50 in data set [1] was 1580 nM.
On to `COc1cc(C[C@@H]2CCN(C(C)c3ccc4sc(C)nc4n3)C2)cc(C)n1` (single isomer, unassigned) [Compound 97], for which the Emax was -2% at OGA (setting [4]) and 56% in data set [1] (maximal effect). In addition, the EC50 on OGA (setting [2]) is greater than 1000 nM. In data set [1], the IC50 was 6310 nM.
Consider `Cc1cc(C[C@H]2CCN(C(C)c3cnc4nc(C)oc4c3)C2)cc(C)n1` (stereo partly shown) [Compound 63], for which the figures for the Emax (on OGA (setting [4]); in data set [1] (maximal effect)) were 77% and 103%, respectively. In addition, at OGA (setting [2]), the EC50 was 158 nM. Moreover, the IC50 in data set [1] is 100 nM.
In the case of `Cc1cc(C[C@H]2CCCN(C(C)c3cnc4[nH]c(C)nc4c3)C2)cc(C)n1` (single isomer, unassigned) [Compound 6a], the melting point – broadly, the temperature of the solid-liquid transition – was determined as 180.52 °C. The IC50 in data set [1] was 1580 nM. Moreover, the Emax in data set [1] (maximal effect) came to 89%.
As for `COc1cc(C2CCCN(C(C)c3ccc4oc(C)nc4n3)C2)cc(C)n1` (racemic) [Compound 18], the Emax came out at 76% on OGA (setting [4]) and 100% in data set [1] (maximal effect). In addition, the EC50 at OGA (setting [2]) is 158 nM. In data set [1], the IC50 is 20 nM.
Consider `Cc1cc(C[C@H]2CCCN(C(C)c3ccc4cn(C)nc4n3)C2)cc(C)n1` (mixture of isomers) [Compound 12ab], for which the Emax is 71% on OGA (setting [4]) and 100% in data set [1] (maximal effect). At OGA (setting [2]), the EC50 was 251 nM. For the same compound, in data set [1], the IC50 is 25.1 nM.
Regarding `Cc1cc(CN[C@H]2CCCN(C(C)c3ccc4sc(C)nc4n3)C2)cc(C)n1` (stereo partly shown) [Compound 84], the results for the Emax (at OGA (setting [4]); in data set [1] (maximal effect)) were 66% and 98%, respectively. Besides, the EC50 at OGA (setting [2]) is 501 nM. Further, the IC50 in data set [1] was 25.1 nM.
For `Cc1cc([C@H]2CCCN([C@H](C)c3ccc4sc(C)nc4n3)C2)cc(C)n1` (racemic) [Compound 75], the Emax at OGA (setting [4]) is -1%; in data set [1] (maximal effect), 86%. In addition, the EC50 at OGA (setting [2]) was greater than 1000 nM. In addition, the IC50 in data set [1] was 2000 nM.
For `Cc1cc(CO[C@H]2CCCN(C(C)c3ccc4sc(C)nc4n3)C2)cc(C)n1` (stereo partly shown) [Compound 66], the Emax at OGA (setting [4]) came to 55%; in data set [1] (maximal effect), 100%. Moreover, the EC50 at OGA (setting [2]) is 501 nM. The IC50 in data set [1] was 39.8 nM.
With `Cc1cc(C)nc(CO[C@@H]2CCN(C(C)c3ccc4sc(C)nc4n3)C2)c1` (stereo partly shown) [Compound 80], the values for the Emax (at OGA (setting [4]); in data set [1] (maximal effect)) were 5% and 85%, respectively. The EC50 on OGA (setting [2]) is greater than 1000 nM. Besides, the IC50 in data set [1] is 2000 nM.
In the same order, the values of `COc1cc(C2CCCN(C(C)c3ccc4oc(C)nc4n3)C2)cc(C(F)(F)F)n1` (racemic) [Compound 20] are 60%, 101%, 631 nM and 20 nM.
For the compound `Cc1cc(C[C@H]2CCCN(C(C)c3ccc4cn(C)nc4c3)C2)cc(C)n1` (mixture of isomers) [Compound 16], on OGA (setting [2]), the EC50 was greater than 1000 nM. For the same compound, the figures for the Emax (on OGA (setting [3]); in data set [1] (maximal effect)) were 14% and 97%, respectively. In addition, the IC50 in data set [1] is 126 nM.
Turning to `Cc1cc(O[C@@H]2CCN(C(C)c3nc4nc(C)sc4cc3F)C2)cc(C)n1` (stereo partly shown) [Compound 92], the Emax came out at 28% on OGA (setting [4]) and 99% in data set [1] (maximal effect). In addition, the EC50 at OGA (setting [2]) is greater than 1000 nM. Moreover, the IC50 in data set [1] is 39.8 nM.
In the same order, the values of `Cc1cc(OC[C@@H]2CCN(C(C)c3ccc4sc(C)nc4n3)C2)cc(C)n1` (mixture of isomers) [Compound 47] are 11%, 99%, greater than 1000 nM and 398 nM.
